According to US12077503B2, “Substituted cyclic amides and their use as herbicides” (FMC CORPORATION, priority 2015, dated 2024):

What was measured:
Assay in all cases: Test A postemergence
Assay type in all cases: in vivo
[1] = tested on: giant foxtail (Setaria faberii); settings: Setaria faberi, post-emergence, 240 h, 125 g ai/ha, postemergence, visual injury rating after approximately 10 d; read-out: Foxtail, Giant plant response rating (0 to 100 scale, 0 no effect, 100 complete control)
Method in brief: (§1)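 Preemergence directed soil spray on seeded pots, or postemergence application to plants 2–10 cm, one- to two-leaf. Solvent mixture non-phytotoxic, with surfactant. Scored ~10 d later, visually, 0–100 vs untreated.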

[2] = tested on: blackgrass (Alopecurus myosuroides); settings: Alopecurus myosuroides, post-emergence, 240 h, 125 g ai/ha, postemergence, visual injury rating after approximately 10 d; read-out: Blackgrass plant response rating (0 to 100 scale, 0 no effect, 100 complete control)
Method in brief: as §1

[3] = tested on: wheat (Triticum aestivum); settings: Triticum aestivum, post-emergence, 240 h, 125 g ai/ha, postemergence, visual injury rating after approximately 10 d; read-out: Wheat plant response rating (0 to 100 scale, 0 no effect, 100 complete control)
Method in brief: as §1

[4] = tested on: ryegrass, Italian (Italian ryegrass, Lolium multiflorum); settings: Lolium multiflorum, post-emergence, 240 h, 125 g ai/ha, postemergence, visual injury rating after approximately 10 d; read-out: Ryegrass, Italian plant response rating (0 to 100 scale, 0 no effect, 100 complete control)
Method in brief: as §1

[5] = tested on: ragweed (common ragweed, Ambrosia elatior); settings: Ambrosia artemisiifolia, post-emergence, 240 h, 125 g ai/ha, postemergence, visual injury rating after approximately 10 d; read-out: Ragweed plant response rating (0 to 100 scale, 0 no effect, 100 complete control)
Method in brief: as §1

| Structure (SMILES) | pest or weed control at 125 g/ha [1] [%] | pest or weed control at 125 g/ha [2] [%] | plant injury at 125 g/ha [3] [%] | pest or weed control at 125 g/ha [4] [%] | pest or weed control at 125 g/ha [5] [%] |
| --- | --- | --- | --- | --- | --- |
| O=C1NC[C@H](c2ccc(F)c(OC(F)(F)C(F)(F)Br)c2)[C@H]1C(=O)Nc1cccc(F)c1F (racemic) [Compound 914] | 70 | 0 | 0 | 0 | 20 |
| CN1C[C@H](c2cccc(C3CC3)c2)[C@@H](C(=O)Nc2ccccc2S(C)(=O)=O)C1=O [Compound 817] | 90 | 40 | 50 | 30 | 0 |
| CN1C[C@H](c2cccc(C3CC3)c2)[C@@H](C(=O)Nc2ccc(F)cc2F)C1=O [Compound 818] | 90 | 30 | 0 | 40 | 0 |
| CC(C)c1cccc([C@H]2CN(C)C(=O)[C@@H]2C(=O)Nc2ccccc2F)c1 [Compound 819] | 90 | 60 | 30 | 70 | 0 |
| CN1C[C@H](c2cccc(F)c2)[C@@H](C(=O)Nc2ccccc2C(F)(F)F)C1=O [Compound 823] | 90 | 20 | 0 | 0 | 20 |
| N#Cc1cccc(NC(=O)[C@H]2C(=O)NC[C@@H]2c2cccc(C(F)(F)F)c2)c1F [Compound 829] | 90 | 40 | 30 | 20 | 0 |
| CS(=O)(=O)c1ccccc1NC(=O)[C@H]1C(=O)NC[C@@H]1c1cc(F)c(C(F)(F)F)c(F)c1 [Compound 839] | 60 | – | 50 | 50 | 60 |
| COc1ccccc1NC(=O)[C@H]1C(=O)N(C)C[C@@H]1c1ccc(C(F)(F)F)cc1 [Compound 843] | 70 | 0 | 0 | 0 | 0 |
| Cc1cc(F)cc([C@H]2CNC(=O)[C@@H]2C(=O)Nc2ccc(F)c(F)c2F)c1 [Compound 848] | 70 | 0 | 0 | 0 | 0 |
| Cc1cc(F)cc([C@H]2CN(C)C(=O)[C@@H]2C(=O)Nc2cccc(F)c2F)c1 [Compound 849] | 90 | 30 | 30 | 0 | 0 |
| Cc1cc(F)cc([C@H]2CN(C)C(=O)[C@@H]2C(=O)Nc2ccccc2F)c1 [Compound 850] | 80 | 0 | 20 | 0 | 0 |
| COc1ccc([C@H]2CN(C)C(=O)[C@@H]2C(=O)Nc2ccccc2F)cc1OC [Compound 852] | 80 | 0 | 0 | 0 | 0 |
| COc1ccc([C@H]2CN(C)C(=O)[C@@H]2C(=O)Nc2cccc(F)c2F)cc1OC [Compound 853] | 90 | 20 | 0 | 0 | 0 |
| COc1ccc([C@H]2CN(C)C(=O)[C@@H]2C(=O)Nc2ccccc2SC)cc1OC [Compound 854] | 50 | 0 | 0 | 0 | 0 |
| COc1cc([C@H]2CN(C)C(=O)[C@@H]2C(=O)Nc2cccc(F)c2F)cc(C(F)(F)F)c1 [Compound 856] | 90 | 60 | 50 | 40 | 0 |
| COc1cc(C(F)(F)F)ccc1[C@H]1CN(C)C(=O)[C@@H]1C(=O)Nc1cccc(F)c1F [Compound 859] | 80 | 30 | 20 | 20 | 0 |
| COc1cc(C(F)(F)F)ccc1[C@H]1CN(C)C(=O)[C@@H]1C(=O)Nc1ccccc1SC [Compound 860] | 60 | 0 | 20 | 0 | 0 |
| CSc1ccccc1NC(=O)[C@H]1C(=O)NC[C@@H]1c1cccc2c1OC(F)(F)O2 [Compound 865] | 0 | 0 | 0 | 0 | 0 |
| CSc1ccccc1NC(=O)[C@H]1C(=O)N(C)C[C@@H]1c1cc(F)c(F)c(F)c1 [Compound 866] | 70 | 0 | 0 | 20 | 0 |
| CN1C[C@H](c2cc(F)cc(F)c2)[C@@H](C(=O)Nc2ccccc2[S@+](C)[O-])C1=O [Compound 871] | 40 | 0 | 20 | 20 | 0 |
| Cc1c(F)cccc1NC(=O)[C@H]1C(=O)N(C)C[C@@H]1c1cccc(COC(F)F)c1 [Compound 874] | 90 | 60 | 20 | 20 | 20 |
| CN1C[C@H](c2cccc(COC(F)F)c2)[C@@H](C(=O)Nc2ccccc2F)C1=O [Compound 875] | 90 | 20 | 0 | 20 | 20 |
| CSc1ccccc1NC(=O)[C@H]1C(=O)N(C)C[C@@H]1c1cccc(COC(F)F)c1 [Compound 876] | 40 | 0 | 0 | 0 | 0 |
| CN1C[C@H](c2cc(F)c(F)c(F)c2)[C@@H](C(=O)Nc2ccccc2F)C1=O [Compound 878] | 80 | 60 | 60 | 40 | 20 |
| Cc1cc(C)cc([C@H]2CNC(=O)[C@@H]2C(=O)Nc2cccc(F)c2F)c1 [Compound 889] | 40 | 20 | 0 | 40 | 0 |
